According to US8614327B2 (Vertex Pharmaceuticals Incorporated, priority 2004, dated 2013):

Molecular target: T1, ΔF508-CFTR (Homo sapiens, UniProt P13569, DEL508-508)
T1 construct: expressed in transfected cells
Assay: Membrane potential optical (FRET/VIPR) assay, identification of potentiator compounds
Assay type: cell-based
Settings: Table 3, assay not given; for % Activity: relative efficacy
In short: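 NIH3T3 mouse fibroblasts stably expressing ΔF508-CFTR, temperature-corrected 24 h at 27° C., read on VIPR by FRET between CC2-DMPE and DiSBAC2(3). Potentiators identified in a double-addition format, first adding chloride-free (gluconate) medium with or without compound.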

T1 sequence (P13569 with tags, fused parts or gaps DEL508-508): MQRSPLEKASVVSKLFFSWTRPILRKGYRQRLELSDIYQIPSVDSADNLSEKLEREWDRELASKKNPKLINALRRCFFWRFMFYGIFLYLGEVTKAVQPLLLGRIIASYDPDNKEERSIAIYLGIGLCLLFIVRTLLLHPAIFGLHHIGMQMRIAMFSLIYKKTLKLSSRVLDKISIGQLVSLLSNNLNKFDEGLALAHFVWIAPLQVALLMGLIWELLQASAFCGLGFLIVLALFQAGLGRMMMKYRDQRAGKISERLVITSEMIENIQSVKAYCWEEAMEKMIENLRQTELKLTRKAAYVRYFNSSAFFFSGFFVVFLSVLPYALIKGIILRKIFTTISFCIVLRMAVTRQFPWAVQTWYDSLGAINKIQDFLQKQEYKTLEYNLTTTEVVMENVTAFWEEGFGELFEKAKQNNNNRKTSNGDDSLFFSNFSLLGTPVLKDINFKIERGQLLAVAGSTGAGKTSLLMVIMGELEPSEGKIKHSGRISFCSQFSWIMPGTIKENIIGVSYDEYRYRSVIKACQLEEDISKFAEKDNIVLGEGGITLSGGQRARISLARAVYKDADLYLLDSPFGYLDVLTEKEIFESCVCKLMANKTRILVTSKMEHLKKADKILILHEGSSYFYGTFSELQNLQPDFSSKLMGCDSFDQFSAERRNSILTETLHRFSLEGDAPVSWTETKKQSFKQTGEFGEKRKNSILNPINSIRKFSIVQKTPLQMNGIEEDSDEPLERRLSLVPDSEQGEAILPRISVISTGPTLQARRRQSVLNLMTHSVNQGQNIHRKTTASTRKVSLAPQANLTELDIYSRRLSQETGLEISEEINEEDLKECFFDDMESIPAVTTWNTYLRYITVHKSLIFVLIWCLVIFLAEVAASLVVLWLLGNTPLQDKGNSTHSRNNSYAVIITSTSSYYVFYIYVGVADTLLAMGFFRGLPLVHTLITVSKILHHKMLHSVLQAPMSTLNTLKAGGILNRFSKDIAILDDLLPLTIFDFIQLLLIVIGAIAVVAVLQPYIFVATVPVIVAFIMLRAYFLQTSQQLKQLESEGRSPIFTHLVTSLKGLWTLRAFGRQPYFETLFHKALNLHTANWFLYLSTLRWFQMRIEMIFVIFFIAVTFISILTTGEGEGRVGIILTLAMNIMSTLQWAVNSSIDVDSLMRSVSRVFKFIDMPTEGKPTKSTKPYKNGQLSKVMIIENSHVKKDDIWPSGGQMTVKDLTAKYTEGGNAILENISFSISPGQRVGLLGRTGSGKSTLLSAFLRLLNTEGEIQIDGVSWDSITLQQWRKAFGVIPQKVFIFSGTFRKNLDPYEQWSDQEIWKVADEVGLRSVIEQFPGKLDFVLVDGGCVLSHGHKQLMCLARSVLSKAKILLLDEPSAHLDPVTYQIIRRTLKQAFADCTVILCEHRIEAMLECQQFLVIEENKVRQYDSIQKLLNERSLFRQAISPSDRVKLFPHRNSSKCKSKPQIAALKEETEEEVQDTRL

SMILES	EC50	% Activity
CC1(c2cc(F)c(NC(=O)c3c[nH]c4ccc(F)cc4c3=O)cc2O)CCCCC1 [Compound 218, 6-fluoro-N-[2-fluoro-5-hydroxy-4-(1-methylcyclohexyl)-phenyl]-4-oxo-1H-quinoline-3-carboxamide]	< 10 µM	++ (between 25% to 100%)
O=C(Nc1cnccn1)c1c[nH]c2ccccc2c1=O [Compound 219, 4-oxo-N-pyrazin-2-yl-1H-quinoline-3-carboxamide]	25 to 60 µM	+ (<25%)
CC(C)(C)c1cc(C(C)(C)C)c(NC(=O)c2c[nH]c3ccccc3c2=O)c(O)c1O [Compound 220, N-(2,3-dihydroxy-4,6-ditert-butyl-phenyl)-4-oxo-1H-quinoline-3-carboxamide]	< 10 µM	++ (between 25% to 100%)
CCCc1ccc(NC(=O)c2c[nH]c3ccccc3c2=O)cc1NC(=O)OC [Compound 221, [5-[(4-oxo-1H-quinolin-3-yl)carbonylamino]-2-propyl-phenyl]aminoformic acid methyl ester]	< 10 µM	++ (between 25% to 100%)
N#Cc1c(Cl)cccc1NC(=O)c1c[nH]c2ccccc2c1=O [Compound 222, N-(3-chloro-2-cyano-phenyl)-4-oxo-1H-quinoline-3-carboxamide]	10 to 25 µM	++ (between 25% to 100%)
CSc1ccc(-c2ccccc2NC(=O)c2c[nH]c3ccccc3c2=O)cc1 [Compound 223, N-[2-(4-methylsulfanylphenyl)phenyl]-4-oxo-1H-quinoline-3-carboxamide]	< 10 µM	++ (between 25% to 100%)
O=C(Nc1ccc(-c2ccccc2CNC(=O)C(F)(F)F)cc1)c1c[nH]c2ccccc2c1=O [Compound 224, 4-oxo-N-[4-[2-[(2,2,2-trifluoroacetyl)aminomethyl]phenyl]phenyl]-1H-quinoline-3-carboxamide]	< 10 µM	++ (between 25% to 100%)
CCOC(=O)Nc1cc(NC(=O)c2c[nH]c3ccccc3c2=O)ccc1C(C)C [Compound 225, [2-isopropyl-5-[(4-oxo-1H-quinolin-3-yl)carbonylamino]phenyl]aminoformic acid ethyl ester]	< 10 µM	++ (between 25% to 100%)
CCCc1ccc(NC(=O)c2c[nH]c3ccccc3c2=O)cc1 [Compound 226, 4-oxo-N-(4-propylphenyl)-1H-quinoline-3-carboxamide]		++ (between 25% to 100%)
O=C(Nc1ccccc1-c1nc2ccccc2[nH]1)c1c[nH]c2ccccc2c1=O [Compound 227, N-[2-(3H-benzoimidazol-2-yl)phenyl]-4-oxo-1H-quinoline-3-carboxamide]	25 to 60 µM	+ (<25%)
O=C(Nc1ccccc1C(O)c1ccccc1)c1c[nH]c2ccccc2c1=O (stereo not drawn) [Compound 228, N-[2-(hydroxy-phenyl-methyl)phenyl]-4-oxo-1H-quinoline-3-carboxamide]	< 10 µM	++ (between 25% to 100%)
CSc1ccccc1NC(=O)c1c[nH]c2ccccc2c1=O [Compound 229, N-(2-methylsulfanylphenyl)-4-oxo-1H-quinoline-3-carboxamide]	< 10 µM	++ (between 25% to 100%)
Cc1cc2cc(NC(=O)c3c[nH]c4ccccc4c3=O)ccc2[nH]1 [Compound 230, N-(2-methyl-1H-indol-5-yl)-4-oxo-1H-quinoline-3-carboxamide]	10 to 25 µM	++ (between 25% to 100%)
COC(=O)c1cccc(-c2cc(C(C)(C)C)c(O)cc2NC(=O)c2c[nH]c3ccccc3c2=O)c1 [Compound 231, 3-[4-hydroxy-2-[(4-oxo-1H-quinolin-3-yl)carbonylamino]-5-tert-butyl-phenyl]benzoic acid methyl ester]	< 10 µM	++ (between 25% to 100%)
CC(=O)N1CCc2ccc(NC(=O)c3c[nH]c4ccccc4c3=O)cc21 [Compound 233, N-(1-acetylindolin-6-yl)-4-oxo-1H-quinoline-3-carboxamide]	10 to 25 µM	+ (<25%)
O=C(Nc1cc2[nH]ccc2cc1C(F)(F)F)c1c[nH]c2ccccc2c1=O [Compound 234, 4-oxo-N-[5-(trifluoromethyl)-1H-indol-6-yl]-1H-quinoline-3-carboxamide]	< 10 µM	++ (between 25% to 100%)
CC(C)c1ccc(NC(=O)c2c[nH]c3ccccc3c2=O)cn1 [Compound 235, N-(6-isopropyl-3-pyridyl)-4-oxo-1H-quinoline-3-carboxamide]	< 10 µM	++ (between 25% to 100%)
O=C(Nc1ccc(C(F)(F)F)cc1)c1c[nH]c2ccccc2c1=O [Compound 236, 4-oxo-N-[4-(trifluoromethyl)phenyl]-1H-quinoline-3-carboxamide]	< 10 µM	++ (between 25% to 100%)
COc1ccccc1-c1cc2cc[nH]c2cc1NC(=O)c1c[nH]c2ccccc2c1=O [Compound 237, N-[5-(2-methoxyphenyl)-1H-indol-6-yl]-4-oxo-1H-quinoline-3-carboxamide]		++ (between 25% to 100%)
CC(C)(C)OC(=O)N1CCC2(CCNc3cc(NC(=O)c4c[nH]c5ccccc5c4=O)ccc32)CC1 [Compound 238, 7′-[(4-oxo-1H-quinolin-3-ylcarbonyl)amino]-spiro[piperidine-4,4′(1′H)-quinoline], 2′,3′-dihydro-carboxylic acid tert-butyl ester]	< 10 µM	++ (between 25% to 100%)
COC(=O)Nc1ccc(C(C)C)c(NC(=O)c2c[nH]c3ccccc3c2=O)c1 [Compound 239, [4-isopropyl-3-[(4-oxo-1H-quinolin-3-yl)carbonylamino]phenyl]aminoformic acid methyl ester]	< 10 µM	++ (between 25% to 100%)
O=C(Nc1ccccc1OCc1ccccc1)c1c[nH]c2ccccc2c1=O [Compound 240, N-(2-benzyloxyphenyl)-4-oxo-1H-quinoline-3-carboxamide]	< 10 µM	++ (between 25% to 100%)
O=C(Nc1cccc2cccnc12)c1c[nH]c2ccccc2c1=O [Compound 241, 4-oxo-N-(8-quinolyl)-1H-quinoline-3-carboxamide]	10 to 25 µM	++ (between 25% to 100%)
Nc1cc(NC(=O)c2c[nH]c3ccccc3c2=O)c(Cl)cc1Cl [Compound 242, N-(5-amino-2,4-dichloro-phenyl)-4-oxo-1H-quinoline-3-carboxamide]	< 10 µM	++ (between 25% to 100%)
O=C(Nc1ccc2c3c([nH]c2c1)CCCC3)c1c[nH]c2ccccc2c1=O [Compound 244, 4-oxo-N-(6,7,8,9-tetrahydro-5H-carbazol-2-yl)-1H-quinoline-3-carboxamide]	< 10 µM	++ (between 25% to 100%)
